# Data as given in paper PMC7835349 (Communications Biology, 2021).
# Several values for one entry are separate records, joined by “and”; a condition that tells them apart may be missing. Equal values may be shown once.
# Test system: telemetered dogs
# Assay: Conscious dog telemetry (QRS amplitude and other cardiovascular parameters, tolerability)
# Details: dog, 0.2 mg/kg 0.5h infusion, 0.2 mg/kg
compound,measurement,setting,value
CN(CCO)CCC(CSc1ccccc1)Nc1ccc(S(=O)(=O)NC(=O)c2ccc(N3CCC(C(O)c4ccccc4-c4ccc(Cl)cc4)CC3)cc2)cc1S(=O)(=O)C(F)(F)F (centres unmarked) [AZD4320],ECG PR interval,0.75 h,113 ms and 82 ms and 85 ms and 87 ms
same,ECG QRS duration,0.75 h,49 ms and 37 ms and 40 ms
same,Left ventricular -dP/dt (mmHg/s),0.75 h,3504 mmHg/s and 3607 mmHg/s and 3634 mmHg/s and 4976 mmHg/s
same,QRS amplitude (% baseline),0.75 h,94 % baseline and 91 % baseline and 92 % baseline
same,Systolic blood pressure (mmHg),0.75 h,163 mmHg and 153 mmHg and 156 mmHg and 164 mmHg
same,ECG PR interval,1 h,116 ms and 88 ms and 93 ms
same,ECG QRS duration,1 h,47 ms and 38 ms and 40 ms and 37 ms
same,Left ventricular -dP/dt (mmHg/s),1 h,3285 mmHg/s and 3388 mmHg/s and 2965 mmHg/s and 4801 mmHg/s
same,QRS amplitude (% baseline),1 h,88 % baseline and 90 % baseline and 92 % baseline and 95 % baseline
same,Systolic blood pressure (mmHg),1 h,150 mmHg and 144 mmHg and 138 mmHg and 159 mmHg
same,ECG PR interval,1.5 h,119 ms and 95 ms and 104 ms and 88 ms
same,ECG QRS duration,1.5 h,49 ms and 38 ms and 40 ms and 37 ms
same,Left ventricular -dP/dt (mmHg/s),1.5 h,3080 mmHg/s and 3480 mmHg/s and 2336 mmHg/s and 4643 mmHg/s
same,QRS amplitude (% baseline),1.5 h,83 % baseline and 97 % baseline and 84 % baseline and 99 % baseline
same,Systolic blood pressure (mmHg),1.5 h,135 mmHg and 152 mmHg and 130 mmHg and 156 mmHg
same,ECG PR interval,2 h,110 ms and 85 ms and 101 ms and 91 ms
same,ECG QRS duration,2 h,47 ms and 37 ms and 40 ms
same,QRS amplitude (% baseline),2 h,86 % baseline and 90 % baseline and 91 % baseline and 95 % baseline
same,Systolic blood pressure (mmHg),2 h,167 mmHg and 155 mmHg and 129 mmHg and 164 mmHg
same,ECG PR interval,3 h,115 ms and 98 ms and 96 ms and 89 ms
same,ECG QRS duration,3 h,48 ms and 37 ms and 39 ms and 36 ms
same,Left ventricular -dP/dt (mmHg/s),3 h,3439 mmHg/s and 3333 mmHg/s and 2944 mmHg/s and 5068 mmHg/s
same,QRS amplitude (% baseline),3 h,121 % baseline and 94 % baseline and 76 % baseline and 88 % baseline
same,Systolic blood pressure (mmHg),3 h,164 mmHg and 159 mmHg and 145 mmHg and 170 mmHg
same,ECG PR interval,4 h,106 ms and 97 ms and 92 ms and 91 ms
same,ECG QRS duration,4 h,46 ms and 36 ms and 39 ms
same,Left ventricular -dP/dt (mmHg/s),4 h,3609 mmHg/s and 3205 mmHg/s and 2963 mmHg/s and 4495 mmHg/s
same,QRS amplitude (% baseline),4 h,97 % baseline and 82 % baseline and 80 % baseline and 89 % baseline
same,Systolic blood pressure (mmHg),4 h,153 mmHg and 136 mmHg and 139 mmHg and 152 mmHg
same,ECG PR interval,6 h,96 ms and 86 ms and 89 ms and 67 ms
same,ECG QRS duration,6 h,48 ms and 37 ms and 39 ms
same,Left ventricular -dP/dt (mmHg/s),6 h,2830 mmHg/s and 3356 mmHg/s and 3220 mmHg/s and 3767 mmHg/s
same,QRS amplitude (% baseline),6 h,108 % baseline and 84 % baseline and 81 % baseline and 102 % baseline
same,Systolic blood pressure (mmHg),6 h,147 mmHg and 145 mmHg and 158 mmHg
same,ECG PR interval,8 h,98 ms and 88 ms and 86 ms and 73 ms
same,ECG QRS duration,8 h,48 ms and 37 ms and 39 ms
same,Left ventricular -dP/dt (mmHg/s),8 h,3465 mmHg/s and 3133 mmHg/s and 2471 mmHg/s and 4567 mmHg/s
same,QRS amplitude (% baseline),8 h,100 % baseline and 88 % baseline and 97 % baseline and 93 % baseline
same,Systolic blood pressure (mmHg),8 h,144 mmHg and 140 mmHg and 137 mmHg and 142 mmHg
same,ECG PR interval,12 h,101 ms and 87 ms and 98 ms and 66 ms
same,ECG QRS duration,12 h,49 ms and 38 ms and 40 ms and 37 ms
same,Left ventricular -dP/dt (mmHg/s),12 h,3004 mmHg/s and 2664 mmHg/s and 2608 mmHg/s and 4493 mmHg/s
same,QRS amplitude (% baseline),12 h,121 % baseline and 90 % baseline and 84 % baseline
same,Systolic blood pressure (mmHg),12 h,133 mmHg and 131 mmHg and 134 mmHg and 165 mmHg
same,ECG PR interval,16 h,108 ms and 95 ms and 94 ms and 77 ms
same,ECG QRS duration,16 h,47 ms and 37 ms and 40 ms
same,Left ventricular -dP/dt (mmHg/s),16 h,2948 mmHg/s and 3176 mmHg/s and 2965 mmHg/s and 4367 mmHg/s
same,QRS amplitude (% baseline),16 h,91 % baseline and 93 % baseline and 81 % baseline and 101 % baseline
same,Systolic blood pressure (mmHg),16 h,151 mmHg and 132 mmHg and 146 mmHg and 164 mmHg
same,ECG PR interval,22 h,115 ms and 93 ms and 97 ms and 80 ms
same,ECG QRS duration,22 h,48 ms and 38 ms and 39 ms
same,Left ventricular -dP/dt (mmHg/s),22 h,3689 mmHg/s and 2854 mmHg/s and 2653 mmHg/s and 4540 mmHg/s
same,QRS amplitude (% baseline),22 h,114 % baseline and 97 % baseline and 102 % baseline
